Consider 17 compounds from US20090299049A1, “Bicyclic Compounds and Their Use” (priority 2006, published 2009).

Series [1] is described as follows: Optical properties: UV-visible spectra, fluorescence excitation and emission. The class given is physicochemical. The settings on record: for Stokes shift: (1/λex − 1 λem); for λem: fluorescence emission wavelength; for λex: fluorescence excitation wavelength. The source says:
The optical properties of several novel chromophores were investigated. UV-visible spectra reveal an intense absorption in the UV region for all the compounds evaluated.

The nature of series [2]: UV absorbance and fluorescence of ribonucleoside analogues in DMSO (molar extinction coefficient, quantum yield). The class given is physicochemical. The settings on record: for Quantum yield: relative to quinine sulphate and anthracene standards. The source says:
UV absorbance and fluorescence excitation and emission data were used to determine the molar extinction coefficient and fluorescence quantum yield of a several adenosine and guanosine ribonucleoside analogues in DMSO (see the Table below). The data acquired support the concept that the fluorescence properties of these analogues can be tuned by altering the electron-donating or electron-withdrawing R-group on the terminal phenylalkyne. Fourteen electron-donating or electron-withdrawing R-groups were coupled to purine bases at the 8-position. […] This makes the analogues extremely useful for the quantification of analogue-containing nucleic acid products in a DNA or RNA background. […] The position (ortho, meta or para) of the R-group on the phenyl ring can also be used to tune the fluorescent properties of the analogues. The ring position of the R-group has a smaller effect on the fluorescent properties of the analogues. Greater changes in the excitation/emission wavelength, molar extinction coefficient and quantum yield can be induced by changing the type of R-group (electron-donating vs. electron-withdrawing) as compared to the position of a R-group on the phenyl ring (ortho, meta or para). The quantum yields of the unphosphorylated analogues were measured relative to quinine sulphate and anthracene standards. […] This provides additional support for the idea that the purine bases can both push and pull electrons in π-conjugated systems.

As for “8-(1′-Ethynylferrocene)adenosine [Compound 6i]”, in series [1], the Stokes shift was 3986 cm⁻¹, the λem is on record as 434 nm and the λex was 370 nm.
The matching figures for “8-(1′-Ethynylferrocene)guanosine [Compound 5i]”: 3537 cm⁻¹, 439 nm and 380 nm.
Consider `Nc1ncnc2c1nc(C#Cc1cccc(C(F)(F)F)c1)n2[C@@H]1O[C@H](CO)[C@@H](O)[C@H]1O` [Adenosine —CF3 meta], for which, in series [2], the Molar absorption coefficient stood at 19547 M⁻¹ cm⁻¹, the “Wavelength at fluorescence emission maximum” value is listed as 421 nm, the “Wavelength at maximum in UV absorption” value turned out to be 326 nm and the Quantum yield came to 21%.
For `Nc1ncnc2c1nc(C#Cc1ccc(Cl)cc1)n2[C@@H]1O[C@H](CO)[C@@H](O)[C@H]1O` [Adenosine —Cl para] the same measures were 23927 M⁻¹ cm⁻¹, 410 nm, 326 nm and 46%.
For `Nc1ncnc2c1nc(C#Cc1ccc(F)cc1)n2[C@@H]1O[C@H](CO)[C@@H](O)[C@H]1O` [Adenosine —F para] the same measures were 5558 M⁻¹ cm⁻¹, 396 nm, 320 nm and 40%.
The matching figures for `COc1cccc(C#Cc2nc3c(N)ncnc3n2[C@@H]2O[C@H](CO)[C@@H](O)[C@H]2O)c1` [Adenosine —OCH3 meta]: 19589 M⁻¹ cm⁻¹, 400 nm, 324 nm and 52%.
For the compound `COc1ccccc1C#Cc1nc2c(N)ncnc2n1[C@@H]1O[C@H](CO)[C@@H](O)[C@H]1O` [Adenosine —OCH3 ortho], in series [2], the “Wavelength at fluorescence emission maximum” value was 429 nm, the “Wavelength at maximum in UV absorption” value turned out to be 333 nm and the Quantum yield is on record as 21%.
Consider `CCN(CC)c1ccc(C#Cc2nc3c(=O)[nH]c(N)nc3n2[C@@H]2O[C@H](CO)[C@@H](O)[C@H]2O)cc1` [Compound 5e, 8-(4-N,N-diethylaminephenylethynyl)guanosine], for which, in series [1], the “UV-visible spectrum shift relative to compound 5a (parent)” value is given as “red-shifted”, the Stokes shift worked out at 5205 cm⁻¹, the λem was determined as 502 nm and the λex came to 398 nm. Further, the “HOMO-LUMO gap relative to compound 5a” value in series [1] (inferred from UV-visible spectrum) is reported as “higher HOMO-LUMO gap”. In series [2], the “Wavelength at fluorescence emission maximum” value is 409 nm, the “Wavelength at maximum in UV absorption” value came out at 356 nm and the Quantum yield stood at 2.1%.
As to `CC(=O)c1ccc(C#Cc2nc3c(=O)[nH]c(N)nc3n2[C@@H]2O[C@H](CO)[C@@H](O)[C@H]2O)cc1` [Compound 5f, 8-(4′-Acetophenonephenylethynyl)guanosine], in series [1], the Stokes shift was 6392 cm⁻¹, the λem turned out to be 532 nm and the λex was found to be 397 nm. In series [2], the Molar absorption coefficient was determined as 19589 M⁻¹ cm⁻¹, the “Wavelength at fluorescence emission maximum” value is given as 509 nm, the “Wavelength at maximum in UV absorption” value is on record as 364 nm and the Quantum yield is on record as 0.44%.
Turning to `Nc1nc2c(nc(C#Cc3cccc4ccccc34)n2[C@@H]2O[C@H](CO)[C@@H](O)[C@H]2O)c(=O)[nH]1` [Compound 5h, 8-(Napthylethynyl)guanosine], in series [1], the Stokes shift is 4604 cm⁻¹, the λem is listed as 465 nm and the λex came out at 383 nm. For the same compound, in series [2], the Molar absorption coefficient is 15141 M⁻¹ cm⁻¹, the “Wavelength at fluorescence emission maximum” value worked out at 467 nm, the “Wavelength at maximum in UV absorption” value is 357 nm and the Quantum yield amounted to 5.4%.
Regarding `CCN(CC)c1ccc(C#Cc2nc3c(N)ncnc3n2[C@@H]2O[C@H](CO)[C@@H](O)[C@H]2O)cc1` [Compound 6e, 8-(4-N,N-Diethylaminephenylethynyl)adenosine], in series [1], the Stokes shift worked out at 4747 cm⁻¹, the λem is reported as 506 nm and the λex was determined as 408 nm. Moreover, the “Absorption maxima shift relative to compound 7a (parent)” value in series [1] (compared with the guanosine series) is reported as “more significant differences”. In addition, in series [2], the “Wavelength at fluorescence emission maximum” value is given as 441 nm, the “Wavelength at maximum in UV absorption” value was 365 nm and the Quantum yield is on record as 8.4%.
Take `CC(=O)c1ccc(C#Cc2nc3c(N)ncnc3n2[C@@H]2O[C@H](CO)[C@@H](O)[C@H]2O)cc1` [Compound 6f, 8-(4′-Acetophenonephenylethynyl)adenosine]: in series [1], the Stokes shift was 6454 cm⁻¹, the λem was determined as 493 nm and the λex is given as 374 nm. Also, in series [2], the Molar absorption coefficient turned out to be 19639 M⁻¹ cm⁻¹, the “Wavelength at fluorescence emission maximum” value is given as 493 nm, the “Wavelength at maximum in UV absorption” value was determined as 343 nm and the Quantum yield was found to be 4.9%.
For the compound `Nc1ncnc2c1nc(C#Cc1cccc3ccccc13)n2[C@@H]1O[C@H](CO)[C@@H](O)[C@H]1O` [Compound 6h, 8-(Napthylethynyl)adenosine], in series [1], the Stokes shift was determined as 3394 cm⁻¹, the λem is given as 431 nm and the λex is reported as 376 nm. Besides, in series [2], the Molar absorption coefficient came out at 22970 M⁻¹ cm⁻¹, the “Wavelength at fluorescence emission maximum” value came to 430 nm, the “Wavelength at maximum in UV absorption” value stood at 349 nm and the Quantum yield was 49%.
Regarding `Nc1nc2c(nc(C#Cc3ccccc3C(F)(F)F)n2[C@@H]2O[C@H](CO)[C@@H](O)[C@H]2O)c(=O)[nH]1` [Guanosine —CF3 ortho], in series [2], the “Wavelength at fluorescence emission maximum” value turned out to be 421 nm, the “Wavelength at maximum in UV absorption” value came out at 347 nm and the Quantum yield amounted to 1.1%.
As to `Nc1nc2c(nc(C#Cc3ccc(Cl)cc3)n2[C@@H]2O[C@H](CO)[C@@H](O)[C@H]2O)c(=O)[nH]1` [Guanosine —Cl para], in series [2], the Molar absorption coefficient stood at 23317 M⁻¹ cm⁻¹, the “Wavelength at fluorescence emission maximum” value is listed as 431 nm, the “Wavelength at maximum in UV absorption” value was 338 nm and the Quantum yield stood at 1.9%.
On to `Nc1nc2c(nc(C#Cc3ccc(F)cc3)n2[C@@H]2O[C@H](CO)[C@@H](O)[C@H]2O)c(=O)[nH]1` [Guanosine —F para], for which, in series [2], the Molar absorption coefficient amounted to 11304 M⁻¹ cm⁻¹, the “Wavelength at fluorescence emission maximum” value was determined as 416 nm, the “Wavelength at maximum in UV absorption” value turned out to be 333 nm and the Quantum yield amounted to 2.4%.
The matching figures for `COc1cccc(C#Cc2nc3c(=O)[nH]c(N)nc3n2[C@@H]2O[C@H](CO)[C@@H](O)[C@H]2O)c1` [Guanosine —OCH3 meta]: 20261 M⁻¹ cm⁻¹, 420 nm, 334 nm and 3.6%.
